How the values were obtained:
[1] = target: T1, AChE (Homo sapiens, UniProt P22303); experiment: Enzyme kinetic studies of AChE inhibition (Lineweaver-Burk plots); type: biochemical
Description: . The type of inhibition was estimated by means of linear Lineweaver-Burk […], and the substrate speed curves in the presence and absence of 3a, 3c and 3i of the strongest compounds were verified in the enzyme kinetics analysis. […] In the initial velocity measurements, different substrate concentrations, ranging from 600 µM to 18.75 µM, were used for the AChE enzyme. The secondary plots of the Km/Vmax (slope) versus changing concentrations were used to determine Ki (intercept on the x-axis) values of compounds [30]. […] Reversible inhibition comprises of the ensuing subtypes: competitive, uncompetitive, noncompetitive or mixed-type. Such inhibitions can be determined using Lineweaver–Burk plots. […] Based on the gained plot, a mixed type of inhibition by compound 3c was established. That is, the compound can bind to the enzyme–substrate complex or to the free enzyme. It also means that the compound is a reversible inhibitor; reversible compounds can be bound to the enzyme by non-covalent interactions such as ionic bonds, hydrophobic interactions and hydrogen bonds deprived of any chemical bonding or reaction with the enzyme. These interactions take place quickly and can be easily reversed. For that reason, the enzyme–inhibitor complex is rapidly degraded immediately before irreversible inhibition. […]

[2] = target: T1, AChE; experiment: biochemical
[3] = target: BChE (Homo sapiens, UniProt P06276); experiment: Anticholinesterase activity assay (modified Ellman method), BChE; type: biochemical
Chain of BChE (P06276 29-602): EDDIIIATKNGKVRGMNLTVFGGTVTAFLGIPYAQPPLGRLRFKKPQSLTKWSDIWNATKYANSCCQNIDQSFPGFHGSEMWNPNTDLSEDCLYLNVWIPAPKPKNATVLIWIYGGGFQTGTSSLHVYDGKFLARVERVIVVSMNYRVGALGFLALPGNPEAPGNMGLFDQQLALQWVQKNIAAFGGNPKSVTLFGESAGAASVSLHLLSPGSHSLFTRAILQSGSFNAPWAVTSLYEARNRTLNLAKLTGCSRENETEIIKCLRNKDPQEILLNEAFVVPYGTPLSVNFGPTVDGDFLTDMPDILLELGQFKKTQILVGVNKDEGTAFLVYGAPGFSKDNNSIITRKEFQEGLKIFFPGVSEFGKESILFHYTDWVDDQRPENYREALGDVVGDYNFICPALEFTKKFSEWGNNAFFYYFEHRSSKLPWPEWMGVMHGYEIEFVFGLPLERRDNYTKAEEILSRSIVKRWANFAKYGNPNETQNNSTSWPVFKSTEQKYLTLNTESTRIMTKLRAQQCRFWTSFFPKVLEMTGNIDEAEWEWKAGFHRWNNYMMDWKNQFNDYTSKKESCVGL
Description: . Initially, all the obtained compounds were tested at 10^−3 M and 10^−4 M concentrations and the ChE inhibitory results are outlined in Table 1. […]. Compounds 3a, 3c and 3i indicated more than 50% activity at the 10^−4 M concentration. […]. […] According to the results of activity tests, some general results can be listed as follows. The compounds 3a, 3c and 3i contain the non-substituted, methoxy and trifluoromethyl substituents on the phenyl ring, respectively. […]
The inhibitory capacity of the obtained compounds on AChE and BChE biological activities was assessed using a modified Ellman’s spectrometric method, as described in our previous studies. Donepezil were used as a reference drug. All pipetting procedures in the enzyme inhibition assay were carried out via a robotics system, Biotek Precision XS (Winooski, VT, USA). A BioTek-Synergy H1 microplate reader (Winooski, VT, USA) was used to carry out measurements of percent inhibition at 412 nm, and the IC50 values of the selected compounds were performed as previously described.

[4] = target: T2, hMAO-A (Homo sapiens, UniProt P21397); experiment: Monoamine oxidase fluorometric inhibition assay, MAO-A; type: biochemical
T2 construct: purchased Sigma-Aldrich (Steinheim, Germany)
T2 sequence (P21397 1-527): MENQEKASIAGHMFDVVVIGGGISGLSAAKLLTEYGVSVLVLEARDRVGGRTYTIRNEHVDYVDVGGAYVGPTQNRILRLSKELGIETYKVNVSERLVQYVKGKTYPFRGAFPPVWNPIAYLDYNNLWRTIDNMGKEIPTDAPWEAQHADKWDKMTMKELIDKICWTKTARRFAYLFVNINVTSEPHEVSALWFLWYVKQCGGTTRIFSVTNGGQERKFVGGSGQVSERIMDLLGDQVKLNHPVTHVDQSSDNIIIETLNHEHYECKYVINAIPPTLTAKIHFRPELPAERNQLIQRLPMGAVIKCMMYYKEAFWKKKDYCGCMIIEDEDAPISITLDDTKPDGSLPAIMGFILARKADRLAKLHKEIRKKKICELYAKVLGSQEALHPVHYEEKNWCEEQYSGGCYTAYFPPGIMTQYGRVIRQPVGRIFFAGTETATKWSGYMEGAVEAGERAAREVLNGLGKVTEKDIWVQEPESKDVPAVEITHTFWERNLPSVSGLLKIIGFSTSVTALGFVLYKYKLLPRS
Description: In order to investigate the monoamine oxidase enzyme inhibitory effects of synthesized compounds, MAO-A and MAO-B enzyme activities were performed by using a fluorometric inhibition method. Moclobemide and selegiline were used as standard drugs for MAO-A and MAO-B enzymes, respectively. Test compounds and standard drugs were used in the same concentrations as in AChE and BChE enzyme activity assays. In Table 2, MAO enzyme inhibitory results are given. […]. To investigate the MAO-A and MAO-B enzyme inhibition profiles of the synthesized compounds, the fluorometric enzyme inhibition assay was carried out, as previously defined by us. Ampliflu™ Red (10-Acetyl-3,7-dihydroxyphenoxazine) was used as a fluorescence reagent in this assay.

[5] = target: T3, hMAO-B (Homo sapiens, UniProt P27338); experiment: biochemical
T3 construct: purchased Sigma-Aldrich (Steinheim, Germany)
T3 sequence (P27338 1-520): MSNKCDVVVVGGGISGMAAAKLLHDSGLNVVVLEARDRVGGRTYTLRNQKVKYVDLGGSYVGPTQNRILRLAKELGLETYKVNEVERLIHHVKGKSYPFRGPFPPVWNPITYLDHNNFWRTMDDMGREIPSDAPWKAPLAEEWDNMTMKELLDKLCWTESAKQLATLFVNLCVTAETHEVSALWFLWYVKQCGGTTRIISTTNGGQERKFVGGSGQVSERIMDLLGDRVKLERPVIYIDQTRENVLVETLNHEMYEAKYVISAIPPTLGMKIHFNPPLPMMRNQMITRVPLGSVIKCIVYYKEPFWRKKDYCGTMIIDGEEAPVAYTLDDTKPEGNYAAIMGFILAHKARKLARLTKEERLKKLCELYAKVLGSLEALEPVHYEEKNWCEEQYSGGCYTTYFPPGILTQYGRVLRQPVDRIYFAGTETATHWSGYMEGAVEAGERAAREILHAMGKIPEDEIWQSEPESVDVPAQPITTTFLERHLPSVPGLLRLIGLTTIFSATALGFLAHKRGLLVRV
Description: Test compounds and standard drugs were used in the same concentrations as in AChE and BChE enzyme activity assays. […] To investigate the MAO-A and MAO-B enzyme inhibition profiles of the synthesized compounds, the fluorometric enzyme inhibition assay was carried out, as previously defined by us. Ampliflu™ Red (10-Acetyl-3,7-dihydroxyphenoxazine) was used as a fluorescence reagent in this assay.

T1 sequence (P22303 32-614): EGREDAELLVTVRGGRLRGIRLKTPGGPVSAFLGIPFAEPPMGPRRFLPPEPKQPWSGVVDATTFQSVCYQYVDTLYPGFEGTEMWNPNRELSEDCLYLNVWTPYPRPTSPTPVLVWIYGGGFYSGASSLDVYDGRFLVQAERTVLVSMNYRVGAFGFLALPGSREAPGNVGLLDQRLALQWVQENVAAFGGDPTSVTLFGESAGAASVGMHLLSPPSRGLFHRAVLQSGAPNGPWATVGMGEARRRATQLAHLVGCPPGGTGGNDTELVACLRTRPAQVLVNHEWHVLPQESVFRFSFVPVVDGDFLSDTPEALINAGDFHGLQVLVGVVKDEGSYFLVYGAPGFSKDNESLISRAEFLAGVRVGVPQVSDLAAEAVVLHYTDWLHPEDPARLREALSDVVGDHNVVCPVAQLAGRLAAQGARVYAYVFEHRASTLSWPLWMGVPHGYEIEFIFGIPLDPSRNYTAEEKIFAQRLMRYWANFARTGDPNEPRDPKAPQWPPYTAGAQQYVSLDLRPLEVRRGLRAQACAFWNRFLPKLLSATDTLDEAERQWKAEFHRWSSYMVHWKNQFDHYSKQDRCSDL

Question: What does the source list for `COc1ccc(-c2csc(NN=Cc3ccc(N4CCN(c5ccc(F)cc5)CC4)cc3)n2)cc1` [Compound 3c, 2-(2-(4-(4-(4-fluorophenyl)piperazin-1-yl)benzylidene)hydrazineyl)-4-(4-methoxyphenyl)thiazole]?
Answer: type of inhibition ([1]; Lineweaver–Burk plots, 2 × IC50, IC50 and IC50/2, substrate 600 µM to 18.75 µM): mixed type; Ki ([1]; secondary plot of Km/Vmax (slope) versus inhibitor concentration, read-out: steady-state inhibition constant (Ki)): 19.7 nM; inhibition at 1000 µM ([2]; 10^−3 M): 88.5 ± 1.1%; IC50 ([2]; 10^−3–10^−9 M concentrations): 31.7 ± 1 nM; inhibition at 1000 µM ([3]; 10^−3 M): 28 ± 0.43%; inhibition at 100 µM ([3]; 10^−4 M): 21.6 ± 0.65%; inhibition at 1000 µM ([4]; 10^−3 M): 38.6 ± 0.58%; inhibition at 100 µM ([4]; 10^−4 M): 21.8 ± 0.55%; inhibition at 1000 µM ([5]; 10^−3 M, read-out: MAO-B % Inhibition): 85.1 ± 1%; inhibition at 100 µM ([5]; 10^−4 M, read-out: MAO-B % Inhibition): 70.3 ± 0.85%; IC50 ([5]; read-out: MAO-B IC50): 1020 ± 42 nM
